We go through six compounds from DBAASP.

Converted amounts (≈) assume the structure as drawn.

What all share (test): ≥ marks a high value that may be exact or a test limit, other limits are often not marked, values filed in µg/mL are converted to µM
The test system of assay [1] is Enterococcus faecalis 981.
Assay [2] relates to Psychrobacter faecalis X29.
The test system of assay [3] is Nocardia asteroides.
The test system of assay [4] is Candida glabrata 090902.
Assay [5] concerns Staphylococcus aureus ATCC 25923.
Assay [6] concerns Enterobacter cloacae CGMCC 1.57.
The test system of assay [7] is Candida albicans.
Assay [8] relates to Saccharomyces cerevisiae.
The subject of assay [9] is Micrococcus luteus ATCC 4698.
Assay [10] relates to Staphylococcus epidermidis ATCC 12228.
Assay [11] deals with Bacillus subtilis KCTC 1021.
In assay [12] the test system is Escherichia coli.
In assay [13] the test system is Pseudomonas putida.
Assay [14] has as its system Klebsiella pneumoniae ATCC 10031.
Assay [15] has as its system Proteus mirabilis ATCC 25933.
In assay [16] the test system is Shigella dysenteriae ATCC 9752.
Assay [17] relates to Salmonella enterica subsp. enterica serovar Typhimurium ATCC 14028.
For assay [18], the system named is Pseudomonas aeruginosa ATCC 9027.
The subject of assay [19] is Serratia marcescens.
The test system of assay [20] is Candida parapsilosis ATCC 22019.
For assay [21], the system named is Enterobacter cloacae ATCC 13047.
In assay [22] the test system is Staphylococcus aureus 10.
In assay [23] the test system is Pseudomonas aeruginosa.
Assay [24] has as its system Candida albicans ATCC 90028.
For assay [25], the system named is Pseudomonas aeruginosa ATCC 27853.
In assay [26] the test system is Shigella dysenteriae.
The test system of assay [27] is Pseudomonas aeruginosa CMCCB 1010.
The subject of assay [28] is Staphylococcus aureus 37.
The subject of assay [29] is Klebsiella pneumoniae ATCC 700603.
Assay [30] has as its system Escherichia coli 117.
For assay [31], the system named is Pseudomonas aeruginosa K799.
The subject of assay [32] is Escherichia coli UB1005.
The subject of assay [33] is Escherichia coli KF111.
In assay [34] the test system is Pseudomonas aeruginosa H374.
The test system of assay [35] is Staphylococcus epidermidis.
In assay [36] the test system is Salmonella enterica subsp. enterica serovar Typhimurium ATCC 14028s.
The test system of assay [37] is Escherichia coli KF130.
Assay [38] relates to Pseudomonas aeruginosa H744.
For assay [39], the system named is Staphylococcus aureus A170.
Assay [40] concerns Staphylococcus aureus.
The test system of assay [41] is Escherichia coli W160-37.

The term MIC denotes the least concentration at which growth counts as inhibited. Turning to `CC[C@H](C)[C@H](NC(=O)[C@H](CC(C)C)NC(=O)CNC(=O)[C@H](CO)NC(=O)[C@@H](NC(=O)[C@@H](N)Cc1ccccc1)[C@@H](C)CC)C(=O)NCC(=O)NCC(=O)N[C@@H](CC(C)C)C(=O)N[C@@H](CCSC)C(=O)N[C@@H](CCCCN)C(=O)N[C@@H](C)C(=O)N[C@@H](CC(C)C)C(N)=O` [FISGLIGGLMKAL], the MIC in assay [1] was at least 50 µM; in assay [2], at least 200 µM; in [3] it was 25 µM (≈ 33 µg/mL); in assay [4] it was at least 100 µM; in assay [5] it was 25 µM (≈ 33 µg/mL); in [6], at least 400 µM.

On to `CC[C@H](C)[C@H](NC(=O)CN)C(=O)N[C@@H](CCSC)C(=O)N[C@@H](CO)C(=O)N[C@H](C(=O)N[C@H](C(=O)N[C@@H](CCCCN)C(=O)N[C@@H](CC(=O)O)C(=O)N[C@H](C(=O)N[C@@H](C)C(=O)N[C@@H](CCCCN)C(=O)N[C@H](C(=O)N[C@@H](C)C(=O)N[C@@H](C)C(=O)N[C@@H](CCCCN)C(=O)N[C@@H](CCC(=O)O)C(=O)N[C@@H](C)C(=O)N[C@@H](C)C(=O)N[C@@H](CCCCN)C(=O)NCC(=O)N[C@@H](C)C(=O)N[C@@H](CC(C)C)C(=O)N[C@@H](CO)C(=O)N[C@H](C(=O)N[C@@H](CC(C)C)C(=O)N[C@@H](CO)C(=O)N[C@H]1CSSC[C@@H](C(=O)O)NC(=O)[C@H]([C@@H](C)O)NC(=O)[C@H](CCCCN)NC(=O)[C@H](C)NC(=O)[C@H](CC(C)C)NC(=O)[C@H](CCCCN)NC1=O)[C@@H](C)O)[C@@H](C)O)C(C)C)C(C)C)[C@@H](C)CC` [GIMSIVKDVAKTAAKEAAKGALSTLSCKLAKTC], for which the MIC was over 60.4 µM in assay [7]; at least 60.4 µM in assay [8]; 0.755 µM (≈ 2.5 µg/mL) in [9]; 3.02 µM (≈ 9.99 µg/mL) in [10]; 3.02 µM (≈ 9.99 µg/mL) in [11]; 22.7 µM (≈ 75 µg/mL) in assay [12]. The MIC in assay [13] is 15.1 µM (≈ 50 µg/mL); in [14], 7.56 µM (≈ 25 µg/mL); in assay [15] it was at least 60.4 µM; in assay [16] it was 7.56 µM (≈ 25 µg/mL); in [17] it was 45.3 µM (≈ 150 µg/mL); in assay [18] it was 15.1 µM (≈ 50 µg/mL). In assay [19], this compound returned an MIC of at least 60.4 µM.

With `CC[C@H](C)[C@H](N)C(=O)N[C@@H](CC(N)=O)C(=O)N[C@@H](CC(C)C)C(=O)N[C@@H](CCCCN)C(=O)N[C@@H](C)C(=O)N[C@H](C(=O)N[C@@H](C)C(=O)N1CCC[C@H]1C(=O)N[C@@H](CC(C)C)C(=O)N[C@@H](C)C(=O)N[C@@H](CCCCN)C(=O)N[C@@H](CCCCN)C(=O)N[C@@H](CC(C)C)C(=O)N[C@@H](CC(C)C)C(=O)O)[C@@H](C)CC` [INLKAIAPLAKKLL], the MIC was found to be 13.3 µM (≈ 20 µg/mL) in assay [20]; 26.6 µM (≈ 40 µg/mL) in assay [21]; 26.6 µM (≈ 40 µg/mL) in [22]; 53.1 µM (≈ 80 µg/mL) in [23]; 13.3 µM (≈ 20 µg/mL) in [24]; 6.64 µM (≈ 10 µg/mL) in assay [25]. Besides, the MIC is 6.64 µM (≈ 10 µg/mL) in assay [26]; 6.64 µM (≈ 10 µg/mL) in assay [27]; at least 53.1 µM in [28]; 13.3 µM (≈ 20 µg/mL) in [29]; 53.1 µM (≈ 80 µg/mL) in assay [5]; at least 53.1 µM in [30].

In the case of `CC[C@H](C)[C@H](NC(=O)[C@@H]1CCCN1C(=O)[C@H](CCCCN)NC(=O)[C@H](CC(C)C)NC(=O)[C@H](C)NC(=O)[C@@H](NC(=O)[C@H](Cc1ccc(O)cc1)NC(=O)[C@H](CC(C)C)NC(=O)[C@@H](NC(=O)[C@@H](NC(=O)[C@H](CCCN=C(N)N)NC(=O)[C@H](C)NC(=O)[C@@H]1CCCN1C(=O)[C@H](CO)NC(=O)[C@H](CCCCN)NC(=O)[C@H](Cc1ccccc1)NC(=O)[C@@H](NC(=O)[C@H](CCCCN)NC(=O)[C@H](CC(C)C)NC(=O)[C@H](Cc1ccccc1)NC(=O)[C@H](CO)NC(=O)[C@H](CCCCN)NC(=O)[C@H](Cc1c[nH]c2ccccc12)NC(=O)[C@@H](N)CCCCN)[C@@H](C)O)[C@@H](C)O)C(C)C)[C@@H](C)O)C(=O)N[C@@H](CO)C(=O)N[C@@H](CO)C(=O)O` [KWKSFLKTFKSPARTVLYTALKPISS], the MIC in assay [31] was 10.7 µM (≈ 32 µg/mL); in assay [32], 0.334 µM (≈ 1 µg/mL); in assay [33], 0.667 µM (≈ 2 µg/mL); in assay [34], 5.34 µM (≈ 16 µg/mL); in [35], 21.3 µM (≈ 64 µg/mL); in assay [36], 5.34 µM (≈ 16 µg/mL). The MIC in [37] was 0.667 µM (≈ 2 µg/mL); in assay [38], 5.34 µM (≈ 16 µg/mL).

As to `CC[C@H](C)[C@H](NC(=O)[C@@H]1CCCN1C(=O)[C@H](CC(C)C)NC(=O)[C@@H](N)CC(C)C)C(=O)N[C@H](C(=O)NCC(=O)N[C@@H](CC(N)=O)C(=O)N[C@@H](CC(C)C)C(=O)N[C@@H](CC(C)C)C(=O)N[C@@H](CCCCN)C(=O)N[C@@H](C)C(=O)N[C@@H](CC(C)C)C(=O)N[C@@H](CC(C)C)C(=O)O)C(C)C` [LLPIVGNLLKALL], the figures for the minimum inhibitory concentration (MIC) in assay [35] and in assay [39] were 14.5 µM (≈ 20 µg/mL) and 7.26 µM (≈ 10 µg/mL), respectively.

Take `CC[C@H](C)[C@H](NC(=O)[C@H](CCCCN)NC(=O)[C@H](CCCCN)NC(=O)[C@H](Cc1c[nH]c2ccccc12)NC(=O)[C@H](CCCCN)NC(=O)[C@H](CO)NC(=O)[C@H](CC(C)C)NC(=O)[C@H](Cc1ccccc1)NC(=O)[C@@H](NC(=O)[C@H](CCCCN)NC(=O)[C@H](CC(C)C)NC(=O)[C@H](CC(C)C)NC(=O)[C@H](CCCCN)NC(=O)[C@@H]1CCCN1)[C@@H](C)O)C(=O)NCC(=O)O` [PKLLKTFLSKWKKIG]: the minimum inhibitory concentration (MIC) in [40] came out at 17 µM (≈ 30.4 µg/mL); in assay [41], 22 µM (≈ 39.3 µg/mL).
